One data set concerns E. coli MG1655 strain. The data set is described as follows: microbe, parasite or virus in culture. The settings on record: Escherichia coli, MG1655, 16 h, read-out: phenol concentration at which growth was totally inhibited (MIC).
In a further data set the test system is E. coli YHP05 strain. The data set is described as follows: MIC measurement to cinnamaldehyde of E. coli. The settings on record: LB liquid medium, 37° C., 16 hrs. The class given is cell-based.
Another data set concerns E. coli YHP05. In words: Screening of transformed E. coli living in cinnamaldehyde MIC (artificial ncRNA expression). The conditions noted are these: transformed E. coli YHP05, LB medium comprising 350 ug/ml cinnamaldehyde, 1 mM IPTG, 16 hrs. It is filed as cell-based. Here is the method: In order to develop an artificial ncRNA to make E. coli survived at 300 ug/ml of cinnamaldehyde concentration, E. coli YHP05 was transformed by the plasmid library which can express genome-originated artificial ncRNA constructed in the Example 3-5, and after transformed ˜500,000 colonies were cultured for 16 hrs, they were diluted to 1:100 and cultured for 16 hrs again in a LB medium comprising 350 ug/ml cinnamaldehyde, 1 mM IPTG, and the result was shown in FIG. 6 and table 6.

Values after ≈ are worked out from the molar mass of the structure shown.

For the molecule `Oc1ccccc1` [phenol], the MIC in the data set on E. coli MG1655 strain worked out at 20 mM (≈ 1880 µg/mL).
Turning to `O=CC=Cc1ccccc1` [cinnamaldehyde], the OD600 with E. coli YHP05 strain (100 ug/ml cinnamaldehyde) turned out to be 3.08; in the data set on E. coli YHP05 strain (150 ug/ml cinnamaldehyde), 2.74; with E. coli YHP05 strain (200 ug/ml cinnamaldehyde), 2.25; in the data set with E. coli YHP05 strain (250 ug/ml cinnamaldehyde), 0.341; with E. coli YHP05 strain (300 ug/ml cinnamaldehyde), 0.091; in the data set with E. coli YHP05 strain (400 ug/ml cinnamaldehyde) it was 0.083. This molecule also showed an OD600 in the data set on E. coli YHP05 strain (500 ug/ml cinnamaldehyde) of 0.062. Moreover, in the data set with E. coli YHP05 strain (Escherichia coli, YHP05STRAIN, read-out: cinnamaldehyde concentration at which cells were not grown (MIC)), the MIC was found to be 300 µg/mL (≈ 2270 µM).
As for “clone 8: artificial ncRNA improving resistance to cinnamaldehyde, genome insert of SEQ ID NO: 19 (DNA AATCCCTCAATGATGCCTGGAATCGCTCTTTTA; expressed or natural sequence)”, the OD600 with E. coli YHP05 is reported as 0.32.
On the same count and under the same terms, the same measure for “clone 9: artificial ncRNA improving resistance to cinnamaldehyde, genome insert of SEQ ID NO: 20 (DNA GGCGCTGCATCCGCGTTATAGCCGCGCCCAGTATGACCGGGTAATGGA; expressed or natural sequence)”: 0.2403.

B1: clone 6: artificial ncRNA improving resistance to cinnamaldehyde, genome insert of SEQ ID NO: 17 (nucleic acid)
DNA: TATTCATTGCTTCTACCCGTGCCTCGCTTTCTGTATTACGAAATTGTCCCAACACATGTGCCAGCCGATAAAAACCCAC
modifications: expressed or natural sequence
In the case of B1, in the data set on E. coli YHP05, the OD600 was found to be 0.2757.

B2: clone 7: artificial ncRNA improving resistance to cinnamaldehyde, genome insert of SEQ ID NO: 18 (nucleic acid)
DNA: AACGCAGGGCGTTCGAAAGCAGGTTGCTTAGCGCCCGACGCAGCATCAGCGGATCGCCCGCGACCTGACACTTGTCGCCAACAAACCGCAACTCCACGCCGCGATCTTCCGCTAACGCCTCGAAAAAATCGAACACTTTGCCGACTTCATCCGCCAG
modifications: cinnamic aldehyde_reg_06
In the data set on E. coli YHP05, B2 gave an OD600 of 0.411.

The record behind these values is patent publication US10227586B2, “Genome-originated artificial ncRNA expression library and method of preparing the same” (KOREA ADVANCED INSTITUTE OF SCIENCE AND TECHNOLOGY, priority 2016, dated 2019).
